The test concerns the target T1, DNA-PK phosphorylation at Serine 2056 (Homo sapiens, UniProt P78527).
T1 construct: host or cells: FaDu
The test is described as follows: Cellular Assay for Inhibition of DNA-PK Phosphorylation at Serine 2056 (FaDu cells, neocarzinostatin, sandwich ELISA). The conditions noted are these: Table 3. The format is cell-based. The protocol: FaDu cells were purchased from ATCC and maintained in MEM alpha medium (Life Technologies, cat. no. 12561) supplemented with 10% fetal bovine serum, and 1% GlutaMAX at 37° C. supplemented with 5% CO2. 50,000 cells were seeded to each well of a 96-well cell culture plate in 50 μL of culture medium and incubated for 16-24 hours. Three-fold serially diluted compounds were prepared in DMSO. Culture media was used to prepare compound treatments to 0.3% DMSO (dimethyl sulphoxide) content. Compound treatments were added to the cells for 1 hour prior incubation, followed by the addition of neocarzinostatin in fresh culture medium to 1 μg/mL final concentration for an additional 2 hours incubation to induce DNA DSBs (double-strand breaks). DMSO controls were incubated with fresh culture medium alone for the additional two hours incubation. The cells were then lysed and frozen at −20° C. Cell lysates were thawed on wet ice and protein concentrations quantified by BCA Protein Assay (Thermo # 23225). Lysis buffer was used to normalize lysates by protein content and all lysates were then investigated by sandwich ELISA by means of DNA-PK-specific antibodies (Abcam ab44815: total DNA-PK; ab124918: phosphoserine-2056 DNA-PK) in sandwich ELISA format on the MSD S600MM platform (MesoScale Discovery). % inhibition was calculated for all data points: =1−(DATA_PT−AVERAGE(DMSO controls))/(AVERAGE(NCS controls)−AVERAGE(DMSO controls)). Logarithm of the molar concentration of compound was plotted against percent inhibition to calculate IC50 values, with curve fit settings for data fit to log(inhibitor) vs. normalized response—Variable slope using curve fit software (GraphPad Prism).
(In general: An ELISA detects its analyte on a solid surface through an enzyme-linked reagent.)

From patent US20240246960A1 (adMare Therapeutics Society, priority 2021, published 2024) come the findings set out here.

The term IC50 denotes the point on the concentration scale where inhibition reaches its midpoint. Low values mean inhibition by little substance, high ones a need for much substance. Turning to `Cc1cc(C#N)nc(N[C@H]2CC[C@@H](Oc3nc(N4CCOCC4)cc4ncc(O)cc34)CC2)n1` [LFA1059, 2-[[4-[(3-hydroxy-7-morpholino-1,6-naphthyridin-5-yl)oxy]cyclohexyl]amino]-6-methyl-pyrimidine-4-carbonitrile], the IC50 was in the range of 0.1 to 1 µM.

`CS(=O)(=O)Nc1cnc2cc(N3CCOCC3)nc(O[C@H]3CC[C@@H](Nc4ccncc4Br)CC3)c2c1` [LFA1014, N-[5-[4-[(3-bromo-4-pyridyl)amino]cyclohexoxy]-7-morpholino-1,6-naphthyridin-3-yl]methanesulfonamide] displayed an IC50 of less than 0.1 µM. Under `COc1ccncc1N[C@H]1CC[C@@H](Oc2nc(N3CCOCC3)cc3ncc(NS(C)(=O)=O)cc23)CC1` [LFA1016, N-[5-[4-[(4-methoxy-3-pyridyl)amino]cyclohexoxy]-7-morpholino-1,6-naphthyridin-3-yl]methanesulfonamide] stands less than 0.1 µM.

Take `CNC(=O)c1ccnc(N[C@H]2CC[C@@H](Oc3nc(N4CCOCC4)cc4ncc(NS(C)(=O)=O)cc34)CC2)n1`: the IC50 is less than 0.1 µM. The same measure for `Cc1ccncc1N[C@H]1CC[C@@H](Oc2nc(N3CCOCC3)cc3ncc(NS(C)(=O)=O)cc23)CC1` [LFA1012]: less than 0.1 µM; for `CN(C)Cc1cnc(N[C@H]2CC[C@@H](Oc3nc(N4CCOCC4)cc4ncc(NS(C)(=O)=O)cc34)CC2)nc1` [LFA1049, N-[5-[4-[[5-[(dimethylamino)methyl]pyrimidin-2-yl]amino]cyclohexoxy]-7-morpholino-1,6-naphthyridin-3-yl]methanesulfonamide]: less than 0.1 µM; for `CS(=O)(=O)Nc1cnc2cc(N3CCOCC3)nc(O[C@H]3CC[C@@H](Nc4ccc(C#N)nn4)CC3)c2c1` [LFA1023, N-[5-[4-[(6-cyanopyridazin-3-yl)amino]cyclohexoxy]-7-morpholino-1,6-naphthyridin-3-yl]methanesulfonamide]: less than 0.1 µM. `Cc1ccc(F)c(N[C@H]2CC[C@@H](Oc3nc(N4CCOCC4)cc4ncc(NS(C)(=O)=O)cc34)CC2)n1` [LFA1001, N-[5-[4-[(3-fluoro-6-methyl-2-pyridyl)amino]cyclohexoxy]-7-morpholino-1,6-naphthyridin-3-yl]methanesulfonamide] showed an IC50 of 0.1 to 1 µM. Under `CS(=O)(=O)Nc1cnc2cc(N3CCOCC3)nc(O[C@H]3CC[C@@H](Nc4ccc(C(F)(F)F)cn4)CC3)c2c1` [LFA1021, N-[7-morpholino-5-[4-[[5-(trifluoromethyl)-2-pyridyl]amino]cyclohexoxy]-1,6-naphthyridin-3-yl]methanesulfonamide] stands less than 0.1 µM. In the case of `Cc1cnc(N[C@H]2CC[C@@H](Oc3nc(N4CCOCC4)cc4ncc(NS(C)(=O)=O)cc34)CC2)c(F)c1` [LFA1011, N-[5-[4-[(3-fluoro-5-methyl-2-pyridyl)amino]cyclohexoxy]-7-morpholino-1,6-naphthyridin-3-yl]methanesulfonamide], the IC50 was less than 0.1 µM.

Take `CS(=O)(=O)Nc1cnc2cc(N3CCOCC3)nc(O[C@H]3CC[C@@H](Nc4cncc(C(F)(F)F)n4)CC3)c2c1` [LFA1030, N-[7-morpholino-5-[4-[[6-(trifluoromethyl)pyrazin-2-yl]amino]cyclohexoxy]-1,6-naphthyridin-3-yl]methanesulfonamide]: the IC50 fell in the range of 0.1 to 1 µM. Under `CS(=O)(=O)Nc1cnc2cc(N3CCOCC3)nc(O[C@H]3CC[C@@H](Nc4cccnc4)CC3)c2c1` [LFA1002, N-[7-morpholino-5-[4-(3-pyridylamino)cyclohexoxy]-1,6-naphthyridin-3-yl]methanesulfonamide] stands less than 0.1 µM; under `Cn1cc([C@H]2CC[C@@H](Oc3nc(N4CCOCC4)cc4ncc(NS(C)(=O)=O)cc34)CC2)cn1` [LFA1062, N-[5-[4-(1-methylpyrazol-4-yl)cyclohexoxy]-7-morpholino-1,6-naphthyridin-3-yl]methanesulfonamide], 0.1 to 1 µM; under `CS(=O)(=O)Nc1cnc2cc(N3CCOCC3)nc(O[C@H]3CC[C@@H](Nc4ncc(F)cc4F)CC3)c2c1` [LFA1024, N-[5-[4-[(3,5-difluoro-2-pyridyl)amino]cyclohexoxy]-7-morpholino-1,6-naphthyridin-3-yl]methanesulfonamide], less than 0.1 µM. For the compound `CS(=O)(=O)Nc1cnc2cc(N3CCOCC3)nc(O[C@H]3CC[C@@H](Nc4ccc(C#N)cn4)CC3)c2c1` [LFA1022, N-[5-[4-[(5-cyano-2-pyridyl)amino]cyclohexoxy]-7-morpholino-1,6-naphthyridin-3-yl]methanesulfonamide], the IC50 was less than 0.1 µM. The compound `COc1ccc(C)nc1N[C@H]1CC[C@@H](Oc2nc(N3CCOCC3)cc3ncc(NS(C)(=O)=O)cc23)CC1` [LFA1010, N-[5-[4-[(3-methoxy-6-methyl-2-pyridyl)amino]cyclohexoxy]-7-morpholino-1,6-naphthyridin-3-yl]methanesulfonamide] came in with an IC50 of 0.1 to 1 µM. The same measure for `Cn1cc([C@H]2CC[C@H](Oc3nc(N4CCOCC4)cc4ncc(NS(C)(=O)=O)cc34)CC2)cn1` [LFA1063, N-[5-[4-(1-methylpyrazol-4-yl)cyclohexoxy]-7-morpholino-1,6-naphthyridin-3-yl]methanesulfonamide]: 10 to 30 µM.

For `Cc1cnc(N[C@H]2CC[C@@H](Oc3nc(N4CCOCC4)cc4ncc(NS(C)(=O)=O)cc34)CC2)nc1` [LFA1048, N-[5-[4-[(5-methylpyrimidin-2-yl)amino]cyclohexoxy]-7-morpholino-1,6-naphthyridin-3-yl]methanesulfonamide], the IC50 is less than 0.1 µM. `CS(=O)(=O)Nc1cnc2cc(N3CCOCC3)nc(O[C@H]3CC[C@@H](Nc4ccnc(C(F)(F)F)n4)CC3)c2c1` [LFA1035, N-[7-morpholino-5-[4-[[2-(trifluoromethyl)pyrimidin-4-yl]amino]cyclohexoxy]-1,6-naphthyridin-3-yl]methanesulfonamide] yielded an IC50 of 0.1 to 1 µM. The same measure for `Cc1nc(N[C@H]2CC[C@@H](Oc3nc(N4CCOCC4)cc4ncc(NS(C)(=O)=O)cc34)CC2)ncc1F` [LFA1039, N-[5-[4-[(5-fluoro-4-methyl-pyrimidin-2-yl)amino]cyclohexoxy]-7-morpholino-1,6-naphthyridin-3-yl]methanesulfonamide;2,2,2-trifluoroacetic acid]: less than 0.1 µM; for `CS(=O)(=O)Nc1cnc2cc(N3CCOCC3)nc(O[C@H]3CC[C@@H](Nc4cncc(C#N)n4)CC3)c2c1` [LFA1031, N-[5-[4-[(6-cyanopyrazin-2-yl)amino]cyclohexoxy]-7-morpholino-1,6-naphthyridin-3-yl]methanesulfonamide]: less than 0.1 µM; for `CN(c1ncccn1)[C@H]1CC[C@@H](Oc2nc(N3CCOCC3)cc3ncc(O)cc23)CC1` [LFA1058, 5-[4-[methyl(pyrimidin-2-yl)amino]cyclohexoxy]-7-morpholino-1,6-naphthyridin-3-ol]: 0.1 to 1 µM. As to `CN(C)Cc1cnc(N[C@H]2CC[C@@H](Oc3nc(N4CCOCC4)cc4ncc(O)cc34)CC2)nc1` [LFA1060, 5-[4-[[5-[(dimethylamino)methyl]pyrimidin-2-yl]amino]cyclohexoxy]-7-morpholino-1,6-naphthyridin-3-ol], the IC50 was less than 0.1 µM. `CS(=O)(=O)Nc1cnc2cc(N3CCOCC3)nc(O[C@H]3CC[C@@H](Nc4cnc(C(F)(F)F)cn4)CC3)c2c1` [LFA1037, N-[7-morpholino-5-[4-[[5-(trifluoromethyl)pyrazin-2-yl]amino]cyclohexoxy]-1,6-naphthyridin-3-yl]methanesulfonamide] showed an IC50 of less than 0.1 µM.

Compound `CS(=O)(=O)Nc1cnc2cc(N3CCOCC3)nc(O[C@H]3CC[C@@H](Nc4nccc(C(F)(F)F)n4)CC3)c2c1` [LFA1044, N-[7-morpholino-5-[4-[[4-(trifluoromethyl)pyrimidin-2-yl]amino]cyclohexoxy]-1,6-naphthyridin-3-yl]methanesulfonamide] yielded a 50% inhibitory concentration (IC50) of 0.1 to 1 µM.

In turn, `COc1nc(NC2CCC(Oc3nc(N4CCOCC4)cc4ncc(NS(C)(=O)=O)cc34)CC2)ncc1C#N` (stereo not drawn) [LFA1038, N-[5-[4-[(5-cyano-4-methoxy-pyrimidin-2-yl)amino]cyclohexoxy]-7-morpholino-1,6-naphthyridin-3-yl]methanesulfonamide] had an IC50 of 0.1 to 1 µM. The same measure for `Cc1ccncc1N[C@H]1CC[C@@H](Oc2nc(N3CCOCC3)cc3ncc(O)cc23)CC1` [LFA1055, 5-[4-[(4-methyl-3-pyridyl)amino]cyclohexoxy]-7-morpholino-1,6-naphthyridin-3-ol]: 0.1 to 1 µM; for `Oc1cnc2cc(N3CCOCC3)nc(O[C@H]3CC[C@@H](Nc4ncc(F)cc4F)CC3)c2c1` [LFA1054, 5-[4-[(3,5-difluoro-2-pyridyl)amino]cyclohexoxy]-7-morpholino-1,6-naphthyridin-3-ol]: 0.1 to 1 µM. The same measure for `Oc1cnc2cc(N3CCOCC3)nc(O[C@H]3CC[C@@H](Nc4ccccn4)CC3)c2c1` [LFA1056, 7-morpholino-5-[4-(2-pyridylamino)cyclohexoxy]-1,6-naphthyridin-3-ol]: less than 0.1 µM; for `CS(=O)(=O)Nc1cnc2cc(N3CCOCC3)nc(O[C@H]3CC[C@@H](Nc4cccnn4)CC3)c2c1` [LFA1020, N-[7-morpholino-5-[4-(pyridazin-3-ylamino)cyclohexoxy]-1,6-naphthyridin-3-yl]methanesulfonamide]: less than 0.1 µM.
